Test results as given in US20200405697A1, “Antitumor Agent” (Taiho Pharmaceutical Co., Ltd, priority 2017, published 2020).

These compounds were tested against T1, human RNR (histidine tagged human M1 and human M2 proteins) (Homo sapiens, UniProt P23921) (assay: Human RNR inhibition effect (dCDP formation from CDP)). Conditions: 10 μM CDP, 37° C. for 30 minutes, read-out: RNR inhibitory activity IC50.
T1 construct: made in house; host or cells: Escherichia coli
T1 sequence (P23921 1-792): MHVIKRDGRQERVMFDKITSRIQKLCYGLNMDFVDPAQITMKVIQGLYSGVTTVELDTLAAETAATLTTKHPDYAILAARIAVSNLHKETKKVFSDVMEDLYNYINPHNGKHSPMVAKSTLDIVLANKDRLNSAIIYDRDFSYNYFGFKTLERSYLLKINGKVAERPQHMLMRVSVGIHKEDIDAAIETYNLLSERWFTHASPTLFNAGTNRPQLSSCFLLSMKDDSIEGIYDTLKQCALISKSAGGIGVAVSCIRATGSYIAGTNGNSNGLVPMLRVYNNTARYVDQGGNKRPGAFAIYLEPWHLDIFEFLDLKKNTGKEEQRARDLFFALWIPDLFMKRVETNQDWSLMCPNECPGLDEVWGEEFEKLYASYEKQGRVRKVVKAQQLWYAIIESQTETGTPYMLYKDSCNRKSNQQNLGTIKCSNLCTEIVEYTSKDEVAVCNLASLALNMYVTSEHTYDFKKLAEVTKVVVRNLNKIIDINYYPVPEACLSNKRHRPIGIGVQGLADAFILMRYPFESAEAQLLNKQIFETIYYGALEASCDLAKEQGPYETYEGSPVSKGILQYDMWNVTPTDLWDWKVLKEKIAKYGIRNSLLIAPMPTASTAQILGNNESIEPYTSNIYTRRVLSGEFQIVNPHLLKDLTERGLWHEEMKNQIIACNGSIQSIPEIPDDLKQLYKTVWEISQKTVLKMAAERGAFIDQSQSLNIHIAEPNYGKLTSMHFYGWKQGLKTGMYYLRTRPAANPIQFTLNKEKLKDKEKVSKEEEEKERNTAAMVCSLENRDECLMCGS
Format: biochemical
Method in brief: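 His-tagged human M1 (isoform 1) and N-terminal 59-aa-truncated M2 (isoform 2), E. coli-expressed, Ni-purified, preincubated 20 min with compound (1% DMSO). Reaction with 10 μM CDP, 2 mM ATP, 0.24 mM NADPH, 6 mM DTT, 4 mM Mg acetate, 100 mM KCl, 50 mM HEPES pH 7.2, 30 min at 37° C. dCDP formed quantified by reverse-phase HPLC after heat stop.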

| SMILES | IC50 [nM] |
| --- | --- |
| Cc1ccc(F)c([C@@H](C)[C@H](NS(=O)(=O)c2ccc(Cl)c3c2OCCC3=O)c2n[nH]c(=O)o2)c1C [Example 88, 5-chloro-N-((1S,2R)-2-(6-fluoro-2,3-dimethylphenyl)-1-(5-oxo-4,5-dihydro-1,3,4-oxadiazol-2-yl)propyl)-4-oxochroman-8-sulfonamide] | 150 |
| Cc1cccc([C@@H](C)[C@H](NS(=O)(=O)c2ccc(Cl)cc2C(N)=O)c2n[nH]c(=O)o2)c1C [Example 3, 5-chloro-2-(N-((1S,2R)-2-(2,3-dimethylphenyl)-1-(5-oxo-4,5-dihydro-1,3,4-oxadiazol-2-yl)propyl)sulfamoyl)benzamide] | 300 |
| Cc1c(Br)ccc(F)c1[C@@H](C)[C@H](NS(=O)(=O)c1ccc(Cl)cc1C(N)=O)c1n[nH]c(=O)o1 [Example 30, 2-(N-((1S,2R)-2-(3-bromo-6-fluoro-2-methylphenyl)-1-(5-oxo-4,5-dihydro-1,3,4-oxadiazol-2-yl)propyl)sulfamoyl)-5-chlorobenzamide] | 150 |
| Cc1ccc(F)c([C@@H](C)[C@H](NS(=O)(=O)c2c(F)cc(Cl)cc2C(N)=O)c2n[nH]c(=O)o2)c1C [Example 258, 5-chloro-3-fluoro-2-(N-((1S,2R)-2-(6-fluoro-2,3-dimethylphenyl)-1-(5-oxo-4,5-dihydro-1,3,4-oxadiazol-2-yl)propyl)sulfamoyl)benzamide] | 140 |
| Cc1cccc2cccc([C@@H](C)[C@H](NS(=O)(=O)c3ccc(Cl)c4c3OCCC4O)c3n[nH]c(=O)o3)c12 (stereo partly drawn) [Example 232, 5-chloro-4-hydroxy-N-((1S,2R)-2-(8-methylnaphthalene-1-yl)-1-(5-oxo-4,5-dihydro-1,3,4-oxadiazol-2-yl)propyl)chroman-8-sulfonamide] | 230 |
| Cc1ccc(F)c([C@@H](C)[C@H](NS(=O)(=O)c2ccc(Cl)cc2OCC(F)F)c2n[nH]c(=O)o2)c1C [Example 145, 4-chloro-2-(2,2-difluoroethoxy)-N-((1S,2R)-2-(6-fluoro-2,3-dimethylphenyl)-1-(5-oxo-4,5-dihydro-1,3,4-oxadiazol-2-yl)propyl)benzenesulfonamide] | 440 |
| [2H]C([2H])([2H])C1(O)CCOc2c(S(=O)(=O)N[C@H](c3n[nH]c(=O)o3)[C@H](C)c3c(F)ccc(Br)c3C)ccc(Cl)c21 (single isomer, unassigned) [Example 226B] | 70 |
| Cc1ccc(F)c([C@@H](C)[C@H](NS(=O)(=O)c2ccc(Cl)c(C(N)=O)n2)c2n[nH]c(=O)o2)c1C [Example 31, 3-chloro-6-(N-((1S,2R)-2-(6-fluoro-2,3-dimethylphenyl)-1-(5-oxo-4,5-dihydro-1,3,4-oxadiazol-2-yl)propyl)sulfamoyl)picolinamide] | 100 |
| CC1CCc2cccc(C(C)[C@H](NS(=O)(=O)c3ccc(Br)cn3)c3n[nH]c(=O)o3)c21 (stereo partly drawn) [Example 48, 5-bromo-N-((1S)-2-(3-methyl-2,3-dihydro-1H-inden-4-yl)-1-(5-oxo-4,5-dihydro-1,3,4-oxadiazol-2-yl)propyl)pyridine-2-sulfonamide] | 600 |
| COc1cc(Cl)ccc1S(=O)(=O)N[C@H](c1n[nH]c(=O)o1)[C@H](C)c1c(C)c(C)cc(F)c1F [Example 90, 4-chloro-N-((1S,2R)-2-(2,3-difluoro-5,6-dimethylphenyl)-1-(5-oxo-4,5-dihydro-1,3,4-oxadiazol-2-yl)propyl)-2-methoxybenzenesulfonamide] | 160 |
| Cc1ccc(F)c([C@@H](C)[C@H](NS(=O)(=O)c2ccc(Cl)cc2C(=O)NOCc2ccccc2)c2n[nH]c(=O)o2)c1C [Example 282, N-(benzyloxy)-5-chloro-2-(N-((1S,2R)-2-(6-fluoro-2,3-dimethylphenyl)-1-(5-oxo-4,5-dihydro-1,3-oxadiazol-2-yl)propyl)sulfamoyl)benzamide] | 910 |
| COc1c(S(=O)(=O)N[C@H](c2n[nH]c(=O)o2)[C@H](C)c2cccc(C)c2C)ccc(Cl)c1C(C)O (stereo partly drawn) [Example 203, 4-chloro-N-((1S,2R)-2-(2,3-dimethylphenyl)-1-(5-oxo-4,5-dihydro-1,3,4-oxadiazol-2-yl)propyl)-3-(1-hydroxyethyl)-2-methoxybenzenesulfonamide] | 180 |
| Cc1ccc(F)c([C@@H](C)[C@H](NS(=O)(=O)c2ccc3[nH]ncc3c2)c2n[nH]c(=O)o2)c1C [Example 182, N-((1S,2R)-2-(6-fluoro-2,3-dimethylphenyl)-1-(5-oxo-4,5-dihydro-1,3,4-oxadiazol-2-yl)propyl)-1H-indazole-5-sulfonamide] | 410 |
| C[C@H](c1cccc2c1CCC2)[C@H](NS(=O)(=O)c1ccc(Br)c(C(C)(C)O)c1)c1n[nH]c(=O)o1 [Example 188, 4-bromo-N-((1S,2R)-2-(2,3-dihydro-1H-inden-4-yl)-1-(5-oxo-4,5-dihydro-1,3,4-oxadiazol-2-yl)propyl)-3-(2-hydroxypropan-2-yl)benzenesulfonamide] | 640 |
| COc1cc(Cl)ccc1S(=O)(=O)N[C@H](c1n[nH]c(=O)o1)[C@H](C)c1cccc2c1CC(C)C2 (stereo partly drawn) [Example 67, 4-chloro-2-methoxy-N-((1S,2R)-2-(2-methyl-2,3-dihydro-1H-inden-4-yl)-1-(5-oxo-4,5-dihydro-1,3,4-oxadiazol-2-yl)propyl)benzenesulfonamide] | 700 |
| C[C@H](c1cccc2c1CCC2)[C@H](NS(=O)(=O)c1ccc(Br)cc1F)c1n[nH]c(=O)o1 [Example 60, 4-bromo-N-((1S,2R)-2-(2,3-dihydro-1H-inden-4-yl)-1-(5-oxo-4,5-dihydro-1,3,4-oxadiazol-2-yl)propyl)-2-fluorobenzenesulfonamide] | 990 |
| Cc1ccc(F)c([C@@H](C)[C@H](NS(=O)(=O)c2ccc3c(c2)CC(=O)N3)c2n[nH]c(=O)o2)c1C [Example 162, N-((1S,2R)-2-(6-fluoro-2,3-dimethylphenyl)-1-(5-oxo-4,5-dihydro-1,3,4-oxadiazol-2-yl)propyl)-2-oxoindoline-5-sulfonamide] | 740 |
| COc1cc(Cl)ccc1S(=O)(=O)N[C@H](c1n[nH]c(=O)o1)[C@H](C)c1c(F)ccc(-c2cnc3c(c2)OCCN3C)c1C [Example 322, 4-chloro-N-((1S,2R)-2-(6-fluoro-2-methyl-3-(4-methyl-3,4-dihydro-2H-pyrido[3,2-b][1,4]oxazine-7-yl)phenyl)-1-(5-oxo-4,5-dihydro-1,3,4-oxadiazol-2-yl)propyl)-2-methoxybenzenesulfonamide] | 220 |
| Cc1ccc(F)c([C@@H](C)[C@H](NS(=O)(=O)c2ccc(Br)cc2C(N)=O)c2n[nH]c(=S)o2)c1C [Example 332, 5-bromo-2-(N-((1S,2R)-2-(6-fluoro-2,3-dimethylphenyl)-1-(5-thioxo-4,5-dihydro-1,3,4-oxadiazol-2-yl)propyl)sulfamoyl)benzamide] | 130 |
| Cc1ccc(F)c([C@@H](C)[C@H](NS(=O)(=O)c2ccc3c(c2)N(C)CCC3)c2n[nH]c(=O)o2)c1C [Example 184, N-((1S,2R)-2-(6-fluoro-2,3-dimethylphenyl)-1-(5-oxo-4,5-dihydro-1,3,4-oxadiazol-2-yl)propyl)-1-methyl-1,2,3,4-tetrahydroquinoline-7-sulfonamide] | 220 |
| Cc1cccc(F)c1[C@@H](C)[C@H](NS(=O)(=O)c1ccc(Cl)cc1C(N)=O)c1n[nH]c(=O)o1 [Example 22, 5-chloro-2-(N-((1S,2R)-2-(2-fluoro-6-methylphenyl)-1-(5-oxo-4,5-dihydro-1,3,4-oxadiazol-2-yl)propyl)sulfamoyl)benzamide] | 340 |
